How the values were obtained:
[1] = molecular target: T1, aldosterone synthase (CYP11B2) (Homo sapiens, UniProt P19099); assay: in vitro aldosterone synthase inhibition: aldosterone production in Ang II-stimulated NCI-H295R cells; assay type: cell-based; conditions: Table 1, read-out: AS IC50
T1 construct: host or cells: NCI-H295R human adrenocortical carcinoma cells
T1 sequence (P19099 25-503): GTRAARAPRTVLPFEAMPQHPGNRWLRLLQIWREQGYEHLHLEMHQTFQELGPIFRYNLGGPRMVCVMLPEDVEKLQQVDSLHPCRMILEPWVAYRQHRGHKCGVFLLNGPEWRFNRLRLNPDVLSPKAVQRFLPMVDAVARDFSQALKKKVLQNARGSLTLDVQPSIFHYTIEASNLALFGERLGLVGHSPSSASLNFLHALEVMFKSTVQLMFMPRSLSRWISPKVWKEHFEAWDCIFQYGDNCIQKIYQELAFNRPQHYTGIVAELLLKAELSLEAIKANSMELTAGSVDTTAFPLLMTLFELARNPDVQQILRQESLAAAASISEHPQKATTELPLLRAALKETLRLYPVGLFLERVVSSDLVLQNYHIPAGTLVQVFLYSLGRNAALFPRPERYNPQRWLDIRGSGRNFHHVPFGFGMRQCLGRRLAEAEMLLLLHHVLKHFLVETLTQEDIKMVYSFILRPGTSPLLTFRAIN
Description: Human adrenocortical carcinoma NCl-H295R cell line is obtained from American Type Culture Collection (Manassas, Va.). Insulin/transferrin/selenium (ITS)-A supplement (100×), DMEM/F-12, antibiotic/antimycotic (100×), and fetal calf serum (FCS) are purchased from Gibco (Grand Island, N.Y.). Anti-mouse PVT scintillation proximity assay (SPA) beads and NBS 96-well plates are obtained from Amersham (Piscataway, N.J.) and Corning (Acton, Mass.), respectively. Solid black 96-well flat bottom plates are purchased from Costar (Corning, N.Y.). Aldosterone and angiotensin (Ang II) are purchased from Sigma (St. Louis, Mo.). D-[1,2,6,7-^3H(N)]aldosterone was acquired from PerkinElmer (Boston, Mass.). Nu-serum was a product of BD Biosciences (Franklin Lakes, N.J.). The NADPH regenerating system, dibenzylfluorescein (DBF), and human aromatase supersomes® are obtained from Gentest (Woburn, Mass.).
For in vitro measurement of aldosterone activity, human adrenocortical carcinoma NCl-H295R cells are seeded in NBS 96-well plates at a density of 25,000 cells/well in 100 μl of a growth medium containing DMEM/F12 supplemented with 10% FCS, 2.5% Nu-serum, 1 μg ITS/ml, and 1× antibiotic/antimycotic. The medium is changed after culturing for 3 days at 37° C. under an atmosphere of 5% CO2/95% air. On the following day, cells are rinsed with 100 μl of DMEM/F12 and incubated with 100 μl of treatment medium containing 1 μM Ang II and a compound at different concentrations in quadruplicate wells at 37° C. for 24 hr. At the end of incubation, 50 μl of medium is withdrawn from each well for measurement of aldosterone production by an RIA using mouse anti-aldosterone monoclonal antibodies.
Measurement of aldosterone activity can also be performed using a 96-well plate format. Each test sample is incubated with 0.02 μCi of D-[1,2,6,7-^3H(N)]aldosterone and 0.3 μg of anti-aldosterone antibody in phosphate-buffered saline (PBS) containing 0.1% Triton X-100, 0.1% bovine serum albumin; and 12% glycerol in a total volume of 200 μl at room temperature for 1 hr. Anti-mouse PVT SPA beads (50 μl) are then added to each well and incubated overnight at room temperature prior to counting in a Microbeta plate counter. The amount of aldosterone in each sample is calculated by comparing with a standard curve generated using known quantities of the hormone.
Full concentration-response curves of the test compound are performed at least 3 times. The IC50 values are derived using a non-linear least squares curve-fitting program from Microsoft XLfit.

[2] = molecular target: T2, CYP11B1 (steroid 11β-hydroxylase) (Homo sapiens, UniProt P15538); assay: in vitro CYP11B1 inhibition: steroid release from NCI-H295R cells; assay type: cell-based; conditions: Table 1
T2 construct: Thus, the NCl-H295R cells have CYP11B1 (steroid 11 p-hydroxylase); host or cells: NCI-H295R human adrenocortical carcinoma cells
T2 sequence (P15538 25-503): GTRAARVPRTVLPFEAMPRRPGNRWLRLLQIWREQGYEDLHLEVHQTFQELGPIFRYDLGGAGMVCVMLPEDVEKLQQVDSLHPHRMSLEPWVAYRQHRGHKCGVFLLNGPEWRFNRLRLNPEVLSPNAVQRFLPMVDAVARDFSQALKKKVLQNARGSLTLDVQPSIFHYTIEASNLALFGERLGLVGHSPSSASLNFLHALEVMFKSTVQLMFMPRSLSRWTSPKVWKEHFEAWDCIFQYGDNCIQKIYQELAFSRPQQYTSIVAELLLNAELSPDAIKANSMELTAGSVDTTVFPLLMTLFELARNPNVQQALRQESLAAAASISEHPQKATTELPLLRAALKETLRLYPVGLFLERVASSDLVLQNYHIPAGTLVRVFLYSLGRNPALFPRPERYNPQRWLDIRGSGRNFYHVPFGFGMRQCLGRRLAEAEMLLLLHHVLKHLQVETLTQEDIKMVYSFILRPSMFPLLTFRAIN
Description: The in vitro inhibitory activities for CYP11B1 can be determined by the following assay.
The cell line NCl-H295R was originally isolated from an adrenocortical carcinoma and has been characterized in the literature through the stimulable secretion of steroid hormones and the presence of the enymes essential for steroidogenesis. Thus, the NCl-H295R cells have CYP11B1 (steroid 11 p-hydroxylase). The cells show the physiological property of zonally undifferentiated human foetal adrenocortical cells which, however, have the capacity to produce the steroid hormones which are formed in the three, phenotypically distinguishable zones in the adult adrenal cortex. […]
The excretion of aldosterone, cortisol, corticosterone and estradiol/estrone into the culture medium can be detected and quantified by commercially available, specific monoclonal antibodies in radioimmunoassays in accordance with the manufacturer's instructions.
Inhibition of the release of certain steroids can be used as a measure of the respective enzyme inhibition by the added test compounds. The dose-dependent inhibition of enzymic activity by a compound is calculated by means of an inhibition plot which is characterized by an IC50.
The IC50 values for active test compounds are ascertained by a simple linear regression analysis in order to construct inhibition plots without data weighting. The inhibition plot is calculated by fting a 4-parameter logistic function to the raw data points using the least squares method. The equation of the 4-parameter logistic function is calculated as follows: Y=(d−a)/((1+(x/c)b))+a I where: a=minimum data level b=gradient I c=ICED d=maximum data level x=inhibitor concentration.

Question: What does the source list for `COC(=O)c1cn(C2Cc3ccccc3C2)cn1` [LDG688, 1-Indan-2-yl-1H-imidazole-4-carboxylic acid methyl ester]?
Answer: IC50 [1]: 9 nM; IC50 [2]: 107 nM

Question: How did the IC50 [1] turn out when `COC(=O)c1cncn1C1CCc2ccccc2C1` (centres unmarked) [LDI154, 3-(1,2,3,4-Tetrahydro-naphthalen-2-yl)-3H-imidazole-4-carboxylic acid methyl ester] was run?
Answer: Its IC50 is 6 nM.

Question: What about the IC50 [2] of the same compound?
Answer: Its IC50 is 42 nM.

Question: `Cc1noc(-c2cncn2C2Cc3ccccc3C2)n1` [LDK260, 5-(3-Indan-2-yl-3H-imidazol-4-yl)-3-methyl-[1,2,4]oxadiazole] was tested. Which IC50 [1] did it give?
Answer: The IC50 was 95 nM.

Question: What about the IC50 [2] of the same compound?
Answer: The IC50 was 725 nM.

Question: Which IC50 [1] does the source give for `ON=Cc1cncn1C1Cc2ccccc2C1` [LDK909, 3-Indan-2-yl-3H-imidazole-4-carbaldehyde oxime] here?
Answer: The IC50 was 378 nM.

Question: Which IC50 [1] does the source give for `COC(=O)c1cncn1C1COc2ccccc2OC1` [LDS237, 3-(3,4-Dihydro-2H-benzo[b][1,4]dioxepin-3-yl)-3H-imidazole-4-carboxylic acid methyl ester] here?
Answer: The IC50 was 214 nM.

From US20100041722A1, “ORGANIC COMPOUNDS” (priority 2006, published 2010)
